Reference: US20250304563A1, “ACTIVATORS OF EFFECTOR T CELLS” (Orum Therapeutics, Inc., priority 2022, published 2025)

Columns and labels:
[1] = system: Human primary T cells; assay: T cell activation: secreted IFN-y; type: cell-based; conditions: 48 hours, fold over background normalized to Compound 141A; for IFN-y 1 nM: 1 nM compound; for IFN-y 10 nM: 10 nM compound; for IFN-y 100 nM: 100 nM compound
Outline: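 Negatively selected primary human T cells (1×10^5/well, serum-free XVivo-15) on plates coated with 10 μg/mL anti-CD3 were exposed to serial compound dilutions for 48 h at 37 °C. Secreted IFN-γ was measured by cytometric bead array and expressed as fold over anti-CD3/CD28 background, normalized to a reference compound and binned into ranges A–D.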

[2] = molecular target: Cbl-b (36-427 aa truncated form, N-terminus Avi-tag) (Homo sapiens (Human), UniProt Q13191); assay: Cbl-b binding: TR-FRET displacement of BODIPY-FL probe
Outline: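 Avi-tagged Cbl-b 36-427 preincubated 1 h at RT with streptavidin-terbium in HEPES pH 7.5/NaCl/Triton/BSA/TCEP buffer, then 1 uM BODIPY-FL inhibitor probe plus compound added for 1 h. Probe displacement read by TR-FRET; IC50 fitted.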

[3] = system: Human primary T cells; assay: T cell activation: secreted IL-2; type: cell-based; conditions: 48 hours, fold over background normalized to Compound 141A; for IL-2 1 nM: 1 nM compound; for IL-2 10 nM: 10 nM compound; for IL-2 100 nM: 100 nM compound
Outline: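 Negatively selected human primary T cells on plate-bound anti-CD3 (OKT3) in serum-free medium, treated 48 h at 37° C. with serial compound dilutions in duplicate. Secreted IL-2 by bead-based cytometric assay, expressed as fold over anti-CD3/CD28 background normalized to a reference compound, then binned into ranges.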

[4] = system: Human primary T cells; assay: T cell activation: CD69 surface expression by flow cytometry; type: cell-based; conditions: fold over anti-CD3 stimulated background normalized to Compound 141A; for CD69 10 nM: 10 nM compound; for CD69 100 nM: 100 nM compound
Outline: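 Negatively selected human primary T cells (1×10^5/well, XVivo-15) were captured on plates coated with 10 μg/mL anti-CD3 (OKT3). They were exposed to serially diluted compounds in duplicate for 48 h at 37° C. CD69 was read by flow cytometry as fold over anti-CD3-only background, normalized to Compound 141A and binned into ranges.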

Cbl-b (36-427 aa truncated form, N-terminus Avi-tag), sequence (Q13191 36-427): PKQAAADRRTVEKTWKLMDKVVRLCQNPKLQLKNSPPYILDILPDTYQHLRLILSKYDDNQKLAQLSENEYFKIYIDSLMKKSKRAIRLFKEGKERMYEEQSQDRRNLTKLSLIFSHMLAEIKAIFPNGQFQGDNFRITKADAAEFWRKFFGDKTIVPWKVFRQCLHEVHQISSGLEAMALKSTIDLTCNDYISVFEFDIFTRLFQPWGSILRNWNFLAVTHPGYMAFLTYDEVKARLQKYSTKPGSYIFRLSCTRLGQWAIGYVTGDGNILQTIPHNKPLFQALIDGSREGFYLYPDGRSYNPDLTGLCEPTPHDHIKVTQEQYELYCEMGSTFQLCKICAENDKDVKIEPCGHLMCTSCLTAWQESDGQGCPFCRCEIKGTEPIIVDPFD

IC50 [2] [nM] | Structure (SMILES) | IFN-y 1 nM [1] | IFN-y 10 nM [1] | IFN-y 100 nM [1] | IL-2 1 nM [3] | IL-2 10 nM [3] | IL-2 100 nM [3] | CD69 10 nM [4] | CD69 100 nM [4]
5.01 to 20 | C=CC(=O)NCCNc1cc(C2(Cc3nncn3C)COC2)cc(N2Cc3c(cc(CN4CCC[C@H](C)C4)cc3C(F)(F)F)C2=O)n1 [Compound 125, (S)-N-(2-((4-(3-((4-methyl-4H-1,2,4-triazol-3-yl)methyl)oxetan-3-yl)-6-(6-((3-methylpiperidin-1-yl)methyl)-1-oxo-4-(trifluoromethyl)isoindolin-2-yl)pyridin-2-yl)amino)ethyl)acrylamide] | C (values between 0.10 and 0.30: range “C”) | C (values between 0.10 and 0.30: range “C”) | B (values between 0.31 and 1.00: range “B;”) | C (values between 0.10 and 0.30: range “C”) | C (values between 0.10 and 0.30: range “C”) | B (values between 0.31 and 0.79: range “B”) | C (values between 0.30 and 0.60: range “C”) | A (values between 0.81 and 1.10: range “A”)
5.01 to 20 | C#CCCS(=O)(=O)N1CCN(c2cc(C3(Cc4nncn4C)COC3)cc(N3Cc4c(cc(CN5CCC[C@H](C)C5)cc4C(F)(F)F)C3=O)n2)CC1 [Compound 134, (S)-2-(6-(4-(but-3-yn-1-ylsulfonyl)piperazin-1-yl)-4-(3-((4-methyl-4H-1,2,4-triazol-3-yl)methyl)oxetan-3-yl)pyridin-2-yl)-6-((3-methylpiperidin-1-yl)methyl)-4-(trifluoromethyl)isoindolin-1-one] | B (values between 0.31 and 1.00: range “B;”) | B (values between 0.31 and 1.00: range “B;”) | B (values between 0.31 and 1.00: range “B;”) | C (values between 0.10 and 0.30: range “C”) | B (values between 0.31 and 0.79: range “B”) | B (values between 0.31 and 0.79: range “B”) | B (values between 0.61 and 0.80: range “B;”) | A (values between 0.81 and 1.10: range “A”)
5.01 to 20 | C[C@H]1CCCN(Cc2cc3c(c(C(F)(F)F)c2)CN(c2cc(C4(Cc5nncn5C)COC4)cc(N4CCN(C(=O)CCCN=[N+]=[N-])CC4)n2)C3=O)C1 [Compound 136, (S)-2-(6-(4-(4-azidobutanoyl)piperazin-1-yl)-4-(3-((4-methyl-4H-1,2,4-triazol-3-yl)methyl)oxetan-3-yl)pyridin-2-yl)-6-((3-methylpiperidin-1-yl)methyl)-4-(trifluoromethyl)isoindolin-1-one] | C (values between 0.10 and 0.30: range “C”) | B (values between 0.31 and 1.00: range “B;”) | B (values between 0.31 and 1.00: range “B;”) | C (values between 0.10 and 0.30: range “C”) | B (values between 0.31 and 0.79: range “B”) | B (values between 0.31 and 0.79: range “B”) | B (values between 0.61 and 0.80: range “B;”) | A (values between 0.81 and 1.10: range “A”)
5.01 to 20 | CC#CC(=O)N1CCN(c2cc(C3(Cc4nncn4C)COC3)cc(N3Cc4c(cc(CN5CCC[C@H](C)C5)cc4C(F)(F)F)C3=O)n2)CC1 [Compound 137] | B (values between 0.31 and 1.00: range “B;”) | B (values between 0.31 and 1.00: range “B;”) | B (values between 0.31 and 1.00: range “B;”) | C (values between 0.10 and 0.30: range “C”) | B (values between 0.31 and 0.79: range “B”) | B (values between 0.31 and 0.79: range “B”) | B (values between 0.61 and 0.80: range “B;”) | A (values between 0.81 and 1.10: range “A”)
5.01 to 20 | CCNc1cc(C2(Cc3nncn3C)COC2)cc(N2Cc3c(cc([C@H](CSC)N4CCC[C@H](C)C4)cc3C(F)(F)F)C2=O)n1 [Compound 141A, 2-[6-(ethylamino)-4-{3-[(4-methyl-1,2,4-triazol-3-yl)methyl]oxetan-3-yl}pyridin-2-yl]-6-[(1R)-1-[(3S)-3-methylpiperidin-1-yl]-2-(methylsulfanyl)ethyl]-4-(trifluoromethyl)-3H-isoindol-1-one] | B (values between 0.31 and 1.00: range “B;”) | B (values between 0.31 and 1.00: range “B;”) | A (fold over background between 1.10 and 2.00: range “A”) | B (values between 0.31 and 0.79: range “B”) | B (values between 0.31 and 0.79: range “B”) | A (between 0.80 and 1.40: range “A”) | A (values between 0.81 and 1.10: range “A”) | A (values between 0.81 and 1.10: range “A”)

Second part, the molecule before the results:

Structure (SMILES) | IC50 [2] [nM] | IFN-y 1 nM [1] | IFN-y 10 nM [1] | IFN-y 100 nM [1] | IL-2 1 nM [3] | IL-2 10 nM [3] | IL-2 100 nM [3] | CD69 10 nM [4] | CD69 100 nM [4]
CC(C)C(C#N)Oc1cc(C2(Cc3nncn3C)COC2)cc(N2Cc3c(cc(CN4CCC[C@H](C)C4)cc3C(F)(F)F)C2=O)n1.O=CO (stereo partly drawn) [Compound 123, 3-methyl-2-[(4-{3-[(4-methyl-1,2,4-triazol-3-yl)methyl]oxetan-3-yl}-6-(6-{[(3S)-3-methylpiperidin-1-yl]methyl}-1-oxo-4-(trifluoromethyl)-3H-isoindol-2-yl)pyridin-2-yl)oxy]butanenitrile; formic acid] | 1 to 5 | C (values between 0.10 and 0.30: range “C”) | C (values between 0.10 and 0.30: range “C”) | B (values between 0.31 and 1.00: range “B;”) | C (values between 0.10 and 0.30: range “C”) | C (values between 0.10 and 0.30: range “C”) | B (values between 0.31 and 0.79: range “B”) | C (values between 0.30 and 0.60: range “C”) | B (values between 0.61 and 0.80: range “B;”)
C[C@H]1CCCN(Cc2cc3c(c(C(F)(F)F)c2)CN(c2cc(C4(Cc5nncn5C)COC4)cc(SCCC(=O)O)n2)C3=O)C1 [Compound 124, 3-[(4-{3-[(4-methyl-1,2,4-triazol-3-yl)methyl]oxetan-3-yl}-6-(6-{[(3S)-3-methylpiperidin-1-yl]methyl}-1-oxo-4-(trifluoromethyl)-3H-isoindol-2-yl)pyridin-2-yl)sulfanyl]propanoic acid] | 100 to 1000 | C (values between 0.10 and 0.30: range “C”) | C (values between 0.10 and 0.30: range “C”) | C (values between 0.10 and 0.30: range “C”) | C (values between 0.10 and 0.30: range “C”) | C (values between 0.10 and 0.30: range “C”) | C (values between 0.10 and 0.30: range “C”) | C (values between 0.30 and 0.60: range “C”) | C (values between 0.30 and 0.60: range “C”)
CCSc1cc(C2(Cc3nncn3C)COC2)cc(N2Cc3c(NC)cc(CN4CCC[C@H](C)C4)cc3C2=O)n1.O=CO [Compound 130, 2-[6-(ethylsulfanyl)-4-{3-[(4-methyl-1,2,4-triazol-3-yl)methyl]oxetan-3-yl}pyridin-2-yl]-4-(methylamino)-6-{[(3S)-3-methylpiperidin-1-yl]methyl}-3H-isoindol-1-one; formic acid] | 5.01 to 20 | C (values between 0.10 and 0.30: range “C”) | C (values between 0.10 and 0.30: range “C”) | B (values between 0.31 and 1.00: range “B;”) | C (values between 0.10 and 0.30: range “C”) | C (values between 0.10 and 0.30: range “C”) | B (values between 0.31 and 0.79: range “B”) | C (values between 0.30 and 0.60: range “C”) | B (values between 0.61 and 0.80: range “B;”)
CCC(CC#N)Nc1cc(C2(Cc3nncn3C)COC2)cc(N2Cc3c(cc(CN4CCC[C@H](C)C4)cc3C(F)(F)F)C2=O)n1.O=C(O)C(F)(F)F (stereo partly drawn) [Compound 135, 3-((4-(3-((4-methyl-4H-1,2,4-triazol-3-yl)methyl)oxetan-3-yl)-6-(6-(((S)-3-methylpiperidin-1-yl)methyl)-1-oxo-4-(trifluoromethyl)isoindolin-2-yl)pyridin-2-yl)amino)pentanenitrile; trifluoroacetic acid] | 5.01 to 20 | C (values between 0.10 and 0.30: range “C”) | B (values between 0.31 and 1.00: range “B;”) | B (values between 0.31 and 1.00: range “B;”) | C (values between 0.10 and 0.30: range “C”) | B (values between 0.31 and 0.79: range “B”) | B (values between 0.31 and 0.79: range “B”) | B (values between 0.61 and 0.80: range “B;”) | A (values between 0.81 and 1.10: range “A”)
